The target in one experiment is Mcl-1 (Homo sapiens, UniProt Q07820). As to the kind of experiment: Mcl-1 Homogeneous Time Resolved Fluorescence (HTRF) binding assay. The following applies: HTRF; 4 nM Mcl-1, 100 nM FAM-Bak peptide; 10-dose, singlicate; read-out: Mcl-1 IC50.
Experiment [1] has as its system NCI-H929 (ATCC CRL-9068) cells. As to the kind of experiment: NCI-H929 cell proliferation assay (CellTiter-Glo). The experiment is classed as cell-based. As to conditions: 72 h of compound treatment. The method, then: Cell proliferation was measured using the CellTiter-Glo® Luminescent Cell Viability Assay. The assay involved the addition of a single reagent (CellTiter-Glo® Reagent) directly to cells cultured in serum-supplemented medium.
Each compound evaluated was prepared as a DMSO stock solution (10 mM). Compounds were tested in duplicate on each plate, with a 10-point serial dilution curve (1:3 dilution). Compound treatment ([…]) was added from the compound dilution plate to the cell plate. The highest compound concentration was 10 μM (final), with a 0.1% final DMSO concentration. Plates were then incubated at 37° C., 5% CO2. After 72 h of compound treatment, cell plates were equilibrated at rt for approximately 30 mins. An equi-volume amount of CellTiter-Glo® Reagent (40 μL) was added to each well. Plates were mixed for 2 mins on an orbital shaker to induce cell lysis and then incubated at rt for 10 mins to stabilize the luminescent signal. Luminescence was recorded using an Envision plate reader according to CellTiter-Glo protocol. IC50 of each compound was calculated using GraphPad Prism by nonlinear regression analysis.

Mcl-1, sequence (Q07820 whole entry): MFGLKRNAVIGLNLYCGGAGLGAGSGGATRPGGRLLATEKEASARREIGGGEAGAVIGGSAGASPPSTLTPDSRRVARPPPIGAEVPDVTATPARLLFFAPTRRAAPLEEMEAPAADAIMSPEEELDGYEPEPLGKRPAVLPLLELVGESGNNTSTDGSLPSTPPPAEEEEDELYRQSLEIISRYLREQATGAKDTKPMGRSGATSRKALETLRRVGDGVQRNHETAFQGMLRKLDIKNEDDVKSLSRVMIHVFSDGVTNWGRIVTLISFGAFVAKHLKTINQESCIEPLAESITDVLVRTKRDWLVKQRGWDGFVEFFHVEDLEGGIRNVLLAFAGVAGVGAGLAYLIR

For orientation: IC50 means the concentration that gives 50% inhibition. Regarding `Cc1[nH]nc2c1-c1c(Cl)ccc3c(c(C(=O)O)n(C)c13)CCCOc1cc(cc3ccccc13)SCc1cc(nn1C)CSC2` (single isomer, unassigned) [Example 6B, (Z)-1^6-Chloro-1^1,2^5,6^1-trimethyl-1^1H,2^1H,6^1H-10-oxa-4,8-dithia-1(7,3)-indola-2(4,3),6(3,5)-dipyrazola-9(3,1)-naphthalenacyclotridecaphane-1^2-carboxylic acid], the IC50 on Mcl-1 was 0.01 to 0.1 µM; in experiment [1] it was over 1 µM.
For the molecule `Cc1nn(C23CC(C2)C3)c2c1-c1c(Cl)ccc3c(c(C(=O)O)n(C)c13)CCCOc1cc(cc3ccccc13)SCc1cc(nn1C)CSC2` (single isomer, unassigned) [Example 20A, (Z)-2^1-(Bicyclo[1.1.1]pentan-1-yl)-1^6-chloro-1^1,2^3,6^1-trimethyl-1^1H,2^1H,6^1H-10-oxa-4,8-dithia-1(7,3)-indola-2(4,5),6(3,5)-dipyrazola-9(3,1)-naphthalenacyclotridecaphane-1^2-carboxylic acid], the values for the IC50 (at Mcl-1; in experiment [1]) were 0.01 to 0.1 µM and over 1 µM, respectively.
The like results for `Cn1nc2cc1CSc1cc(c3ccccc3c1)OCCCc1c(C(=O)O)n(C)c3c(c(Cl)ccc13)-c1c(nn3c1COCC3)CSC2` (single isomer, unassigned) [Example 4B, (Z)-1^6-Chloro-1^1,6^1-dimethyl-2^6,2^7-dihydro-1^1H,2^4H,6^1H-10-oxa-4,8-dithia-2(3,2)-pyrazolo[5,1-c][1,4]oxazina-1(7,3)-indola-6(3,5)-pyrazola-9(3,1)-naphthalenacyclotridecaphane-1^2-carboxylic acid] were, in that order, 0.01 to 0.1 µM and over 1 µM.
For `Cc1[nH]nc2c1-c1c(F)ccc3c(c(C(=O)O)n(C)c13)CCCOc1cc(cc3ccccc13)SCc1cc(nn1C(C)C)CSC2` (single isomer, unassigned) [Example 7B, (Z)-1^6-Fluoro-6^1-isopropyl-1^1,2^5-dimethyl-1^1H,2^1H,6^1H-10-oxa-4,8-dithia-1(7,3)-indola-2(4,3),6(3,5)-dipyrazola-9(3,1)-naphthalenacyclotridecaphane-1^2-carboxylic acid], the IC50 at Mcl-1 was under 0.01 µM.
`Cn1nc2cc1CSc1cc(c3ccccc3c1)OCCCc1c(C(=O)O)n(C)c3c(c(Cl)ccc13)-c1c(nn3c1COCC3)CSC2` (single isomer, unassigned) [Example 4A, (Z)-1^6-Chloro-1^1,6^1-dimethyl-2^6,2^7-dihydro-1^1H,2^4H,6^1H-10-oxa-4,8-dithia-2(3,2)-pyrazolo[5,1-c][1,4]oxazina-1(7,3)-indola-6(3,5)-pyrazola-9(3,1)-naphthalenacyclotridecaphane-1^2-carboxylic acid]: the values for the IC50 (at Mcl-1; in experiment [1]) were under 0.01 µM and 0.1 to 1 µM, respectively.
For `Cn1nc2cc1CSc1cc(c3ccccc3c1)OCCCc1c(C(=O)O)n(C)c3c(c(Cl)ccc13)-c1c(nn3c1CCC3)CSC2` (single isomer, unassigned) [Example 3A, (Z)-1^6-Chloro-1^1,6^1-dimethyl-2^5,2^6-dihydro-1^1H,2^4H,6^1H-10-oxa-4,8-dithia-1(7,3)-indola-2(3,2)-pyrrolo[1,2-b]pyrazola-6(3,5)-pyrazola-9(3,1)-naphthalenacyclotridecaphane-1^2-carboxylic acid], the values for the IC50 (at Mcl-1; in experiment [1]) were under 0.01 µM and under 0.1 µM, respectively.
With `Cn1nc2cc1CSc1cc(c3ccccc3c1)OCCCc1c(C(=O)O)n(C)c3c(c(Cl)ccc13)-c1c(nn3c1CSC3)CSC2` (single isomer, unassigned) [Example 5A, (Z)-1^6-Chloro-1^1,6^1-dimethyl-1^1H,2^4H,2^6H,6^1H-10-oxa-4,8-dithia-2(3,2)-pyrazolo[1,5-c]thiazola-1(7,3)-indola-6(3,5)-pyrazola-9(3,1)-naphthalenacyclotridecaphane-1^2-carboxylic acid], the concentration for half-maximal inhibition (IC50) on Mcl-1 was under 0.01 µM; in experiment [1], 0.1 to 1 µM.
Regarding `Cc1nn(C)c2c1-c1c(F)ccc3c(c(C(=O)O)n(C)c13)CCCOc1cc(cc3ccccc13)SCc1cc(nn1CC(C)C)CSC2` (single isomer, unassigned) [Example 17A, (Z)-1^6-Fluoro-6^1-isobutyl-1^1,2^1,2^3-trimethyl-1^1H,2^1H,6^1H-10-oxa-4,8-dithia-1(7,3)-indola-2(4,5),6(3,5)-dipyrazola-9(3,1)-naphthalenacyclotridecaphane-1^2-carboxylic acid], the half-inhibitory concentration (IC50) on Mcl-1 is over 0.1 µM; in experiment [1], over 1 µM.
As to `Cc1[nH]nc2c1-c1c(Cl)ccc3c(c(C(=O)O)n(C)c13)CCCOc1cc(cc3ccccc13)SCc1cc(nn1C(C)C)CSC2` (single isomer, unassigned) [Example 9A, (Z)-1^6-Chloro-6^1-isopropyl-1^1,2^5-dimethyl-1^1H,2^1H,6^1H-10-oxa-4,8-dithia-1(7,3)-indola-2(4,3),6(3,5)-dipyrazola-9(3,1)-naphthalenacyclotridecaphane-1^2-carboxylic acid], the 50% inhibitory concentration (IC50) at Mcl-1 is under 0.01 µM; in experiment [1] (Homo sapiens, NCI-H929, 72 h) it was 0.1 to 1 µM.
Take `Cc1c2c(nn1C)CSCc1cc(n(C(C)C)n1)CSc1cc(c3ccccc3c1)OCCCc1c(C(=O)O)n(C)c3c-2c(Cl)ccc13` (single isomer, unassigned) [Example 10A, (Z)-1^6-Chloro-6^1-isopropyl-1^1,2^1,2^5-trimethyl-1^1H,2^1H,6^1H-10-oxa-4,8-dithia-1(7,3)-indola-2(4,3),6(3,5)-dipyrazola-9(3,1)-naphthalenacyclotridecaphane-1^2-carboxylic acid]: the IC50 on Mcl-1 is under 0.01 µM; in experiment [1] (Homo sapiens, NCI-H929, 72 h) it was under 0.1 µM.
The like results for `Cc1c2c(nn1C)CSCc1cc(n(C)n1)CSc1cc(c3ccccc3c1)OCCCc1c(C(=O)O)n(C)c3c-2c(F)ccc13` (single isomer, unassigned) [Example 14A, (Z)-1^6-Fluoro-1^1,2^1,2^5,6^1-tetramethyl-1^1H,2^1H,6^1H-10-oxa-4,8-dithia-1(7,3)-indola-2(4,3),6(3,5)-dipyrazola-9(3,1)-naphthalenacyclotridecaphane-1^2-carboxylic acid] were, in that order, under 0.01 µM and under 0.1 µM.
In the case of `Cc1c2c(nn1C)CSCc1cc(n(C)n1)CSc1cc(c3ccccc3c1)OCCCc1c(C(=O)O)n(C)c3c-2c(Cl)cc(Cl)c13` [Example 13A, (Z)-1^4,1^6-dichloro-1^1,2^1,2^5,6^1-tetramethyl-1^1H,2^1H,6^1H-10-oxa-4,8-dithia-1(7,3)-indola-2(4,3),6(3,5)-dipyrazola-9(3,1)-naphthalenacyclotridecaphane-1^2-carboxylic acid], the IC50 in experiment [1] was over 1 µM.
Turning to `Cc1nn(C)c2c1-c1c(F)ccc3c(c(C(=O)O)n(C)c13)CCCOc1cc(cc3ccccc13)SCc1cc(nn1C(C)C)CSC2` (single isomer, unassigned) [Example 16B, (Z)-1^6-Fluoro-6^1-isopropyl-1^1,2^1,2^3-trimethyl-1^1H,2^1H,6^1H-10-oxa-4,8-dithia-1(7,3)-indola-2(4,5),6(3,5)-dipyrazola-9(3,1)-naphthalenacyclotridecaphane-1^2-carboxylic acid], the 50% inhibitory concentration (IC50) in experiment [1] is over 1 µM.
Regarding `Cc1c2c(nn1C)CSCc1cc(n(C)n1)CSc1cc(c3cc(Cl)ccc3c1)OCCCc1c(C(=O)O)n(C)c3c-2c(Cl)ccc13` [Example 12A, (Z)-1^6,9^7-Dichloro-1^1,2^1,2^5,6^1-tetramethyl-1^1H,2^1H,6^1H-10-oxa-4,8-dithia-1(7,3)-indola-2(4,3),6(3,5)-dipyrazola-9(3,1)-naphthalenacyclotridecaphane-1^2-carboxylic acid], the IC50 in experiment [1] lay within 0.1 to 1 µM.

These data come from patent US20220144854A1, “MACROCYCLIC COMPOUNDS” (ZENO MANAGEMENT, INC., priority 2019, published 2022).
